Source: PubChem BioAssay AID1117332
Activity calls are given as the source filed them. How the calls were made is not given here.

tested on: HCT116 viability, CellTiter-Glo ATP luminescence; assay: cytotoxicity toward HCT116 cells – cell-based, CellTiter-Glo luminescence, IC50, dose response (AID 1117332)

**Q.** Which IC50 does the source give for CC(=O)[O][Hg][c]1ccccc1 here?
**A.** 2800 nM

**Q.** How did the IC50 turn out when O=C1[O][Bi][O]c2ccccc21 was run?
**A.** > 20000 nM (inactive)

**Q.** How did the IC50 turn out when Cc1ccc([N+](=O)[O-])[c]2c1[O][Hg]2 was run?
**A.** 2830 nM

**Q.** Which IC50 does the source give for CCCCCCCCCCCCCC[N+](C)(C)C here?
**A.** 2290 nM

**Q.** O=C(O)C1(C(=O)O)CCC1.[NH2-].[NH2-].[Pt+2] was tested. Which IC50 did it give?
**A.** > 20000 nM (inactive)

**Q.** For OCCN1CCN(CC/C=C2/c3ccccc3Sc3ccc(C(F)(F)F)cc32)CC1, which IC50 is on record?
**A.** 4580 nM
